Data reported in patent US20250152564A1, “PROPYLENE KETONE-CONTAINING BIOINHIBITOR, PREPARATION METHOD THEREFOR, AND USE THEREOF” (SHANGHAI HANSOH BIOMEDICAL CO., LTD., priority 2022, published 2025).

What was measured:
[1] = test system: NCI-H716 cells; test: CellTiter-Glo cell proliferation inhibition, NCI-H716; type: cell-based; conditions: Homo sapiens, 72 h, read-out: NCI-H716 cell proliferation inhibition rate IC50
Procedure: (§1) To evaluate inhibitory effects of the compounds on the proliferation of NCI-H716, SNU-16 and BaF3-FGFR2-BICC1 V564F cells by cell proliferation inhibition experiments.
(§2) CellTiter-Glo method was used to detect inhibitory effects of the compounds on the proliferation of NCI-H716, SNU-16 and BaF3 FGFR2-BICC1 V564F cells. The highest detection concentration of the compounds was 1000 nM, which was diluted in 3 folds, with a total of 9 concentrations (1000 nM to 0.15 nM). After the cells were plated at an appropriate density, compounds were added the next day and incubated for 72 h before detection using the […] detection kit.
(§3) 1) Inhibition rate (%): Inhibition rate %=[(mean value in positive control well−value in sample well)/(mean value in positive control well−mean value in negative control well)]×100, wherein the positive control well was a reaction well without a compound […], and the negative control well was a reaction wells without an enzyme.
(§4) 2) Curve fitting: Log(inhibitor) vs. response—Variable slope (four parameters) in GraphPad Prism 6 was used for fitting equation analysis of the compound concentration and the corresponding inhibition rate, and the curve was fitted to obtain the IC50 values of the compounds.

[2] = target: FGFR1 (Homo sapiens (Human), UniProt P11362); test: TR-FRET kinase inhibition assay, FGFR1; type: biochemical; conditions: ATP Km concentration (30 μM)
FGFR1, sequence (P11362 478-767): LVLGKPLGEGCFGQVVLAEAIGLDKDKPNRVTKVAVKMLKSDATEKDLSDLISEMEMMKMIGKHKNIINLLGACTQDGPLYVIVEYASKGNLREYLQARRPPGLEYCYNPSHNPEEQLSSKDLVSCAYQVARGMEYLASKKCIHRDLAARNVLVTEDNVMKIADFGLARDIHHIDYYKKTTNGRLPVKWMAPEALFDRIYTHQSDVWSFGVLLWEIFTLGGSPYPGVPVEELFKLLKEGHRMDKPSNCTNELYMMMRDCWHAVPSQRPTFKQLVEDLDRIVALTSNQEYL
Procedure: (§5) To measure the IC50 values of the compounds against FGFR1, FGFR2, FGFR3, FGFR4, and FGFR2 V564F at ATP Km concentrations by TR-FRET method.
(§6) TR-FRET (time-resolved fluorescence resonance energy transfer) method was used to detect the inhibitory activity of the compounds on FGFR1, FGFR2, FGFR3, FGFR4, and FGFR2 V564F kinase region fragments. The highest detection concentration of the compounds in 5 kinase experiments was 1000 nM, which was diluted in 3 folds, with a total of 11 concentrations (1000 nM to 0.017 nM). A kinase buffer (50 mM HEPES pH 7.5, 1 mM EGTA, 10 mM MgCl2, 2 mM DTT, and 0.01% Tween-20) was used to prepare 4× enzyme solution, 4× compound solutions diluted in gradient, and a 2×ATP/Peptide substrate solution. To a 384-well plate, 2.5 μL of enzyme solution and 2.5 μL of diluted […] compound solution were added, and 5 μL of 2×ATP/Peptide substrate solution was then added. After reacting at room temperature for 60 minutes for FGFR1, FGFR2, FGFR3, and FGFR2 V564F kinases, and 120 minutes for FGFR4 kinase, 10 μL of a 2× termination and detection mixed liquid prepared with 1×LANCE detection buffer with an EDTA concentration of 20 mM and a Europium-anti-phosphotyrosine (PT66) concentration of 2 nM was added to each well of the plate. After reacting at room temperature for 60 minutes for FGFR1, FGFR2, FGFR3, and FGFR4, and 30 minutes for FGFR2 V564F, the fluorescence signal value in each well of the plate was measured by a microplate reader.
as §3, with “(%): Calculation was performed on the raw data (665 nm/620 nm reading ratio) according to the following formula to obtain the inhibition rate.” for “(%):”
as §4

[3] = target: FGFR2 (Homo sapiens (Human), UniProt P21802); test: TR-FRET kinase inhibition assay, FGFR2; type: biochemical; conditions: ATP Km concentration (30 μM)
FGFR2, sequence (P21802 481-770): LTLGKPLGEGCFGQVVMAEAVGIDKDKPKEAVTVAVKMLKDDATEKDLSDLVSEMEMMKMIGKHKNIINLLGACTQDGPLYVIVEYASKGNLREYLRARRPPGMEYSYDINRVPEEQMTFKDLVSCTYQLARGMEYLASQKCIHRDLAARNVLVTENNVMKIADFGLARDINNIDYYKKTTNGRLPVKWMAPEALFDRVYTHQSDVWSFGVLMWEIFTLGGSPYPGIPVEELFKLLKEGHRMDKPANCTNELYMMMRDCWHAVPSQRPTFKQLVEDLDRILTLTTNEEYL
Procedure: as §5, §6
as §3, with “(%): Calculation was performed on the raw data (665 nm/620 nm reading ratio) according to the following formula to obtain the inhibition rate.” for “(%):”
as §4

[4] = target: FGFR2 V564F (Homo sapiens (Human), UniProt P21802, V564F); test: TR-FRET kinase inhibition assay, FGFR2 V564F; type: biochemical; conditions: ATP Km concentration (20 μM)
FGFR2 V564F, sequence (P21802 481-770 V564F): as the sequence (P21802 481-770) above, with V84F counted along it
Procedure: as §5, §6
as §3, with “(%): Calculation was performed on the raw data (665 nm/620 nm reading ratio) according to the following formula to obtain the inhibition rate.” for “(%):”
as §4

[5] = test system: BaF3 FGFR2-BICC1 V564F cells; test: CellTiter-Glo cell proliferation inhibition, BaF3 FGFR2-BICC1 V564F; type: cell-based; conditions: Mus musculus, 72 h, read-out: BaF3 FGFR2-BICC1 V564F inhibitory activity IC50
Procedure: as §1, §2, §3, §4

[6] = Pharmacokinetic experiment in SD rats after oral administration; type: in vivo; conditions: 5 mg/kg, plasma
Procedure: To study the pharmacokinetic behavior of the compounds of the present invention in the rat body (plasma) after oral administration at a dose of 5 mg/kg using SD rats as test animals.
3 SD rats/group, male, from Shanghai Jiesijie Experimental Animal Co., Ltd., animal production license number (SCXK (Shanghai) 2013-0006 N0.311620400001794).
PO, 10% solutol HS15-0.5% CMC-Na was dissolved by ultrasound and prepared into a clear solution or homogeneous suspension.
3 SD rats/group, male; p.o. respectively at a dose of 5 mg/kg and an administration volume of 10 mL/kg after the […] were fasted overnight.
After oral administration to rats, at 0.25, 0.5, 1, 2, 4, 6, 8 and 24 hours, 0.2 mL of blood was collected from the jugular vein, placed in an EDTA-K2 test tube, centrifuged at 6000 rpm for 6 min at 4° C. to separate the plasma, which was stored at −80° C.
1) 100 μL of acetonitrile was added to 20 μL of plasma sample for pelleting, and it was mixed and centrifuged at 3500×g for 5-20 min.
2) The treated supernatant solution was taken and subjected to LC/MS/MS to analyze the concentrations of the test compounds. LC/MS/MS analysis instrument: AB Sciex API 4000 Qtrap.
• Liquid phase conditions: Shimadzu LC-20AD pump • Chromatographic column: Waters Xbridge C18 5 μm, 4.6×50 mm mobile phase: liquid A was 0.1% aqueous formic acid solution, and liquid B was methanol • Flow rate: 1.0 mL/min • Elution time: 0-4.0 min, the eluent was as follows: […]

Compound	IC50 [1]	IC50 [2]	IC50 [3]	IC50 [4]	IC50 [5]	AUC(0-t) ([6]; male, Sprague-Dawley (SD), rat, po, read-out: Area under the curve AUC0-t)	AUC(0-inf) ([6]; male, Sprague-Dawley (SD), rat, po, read-out: Area under the curve AUC0-∞)	half-life ([6]; male, Sprague-Dawley (SD), rat, po, read-out: Half-life t1/2 (converted))	MRT ([6]; male, Sprague-Dawley (SD), rat, po, read-out: Mean residence time MRT)	Cmax ([6]; male, Sprague-Dawley (SD), rat, po, read-out: Plasma concentration Cmax)	Time to peak tmax ([6]; p.o.)
[2H]C([2H])([2H])n1cnc2cc(C#Cc3nn([C@H]4CCN(C(=O)C=C)C4)c4c(-c5nccs5)cnc(N)c34)c(F)cc21 [Example 25, (S)-1-(3-(4-amino-3-((6-fluoro-1-(methyl-d3)-1Hbenzo[d]imidazol-5-yl)ethynyl)-7-(thiazol-2-yl)-1Hpyrazolo[4,3-c]pyridin-1-yl)pyrrolidin-1-yl)prop-2-en-1-one]	–	5.7 nM	1.5 nM	0.6 nM	–	–	–	–	–	–	–
C=CC(=O)N1CC[C@H](n2nc(C#Cc3c(F)cc4c(ncn4C)c3F)c3c(N)ncc(-c4cscn4)c32)C1 [Example 29, (S)-1-(3-(4-amino-3-((4,6-difluoro-1-methyl-1H-benzo[d]imidazol-5-yl)ethynyl)-7-(thiazol-4-yl)-1H-pyrazolo[4,3-c]pyridin-1-yl)pyrrolidin-1-yl)prop-2-en-1-one]	–	7.1 nM	1.5 nM	3.6 nM	–	–	–	–	–	–	–
C=CC(=O)N1CC[C@H](n2nc(C#Cc3cc4ncn(C5CC5)c4cc3F)c3c(N)ncc(-c4nccs4)c32)C1 [Example 34, (S)-1-(3-(4-amino-3-((1-cyclopropyl-6-fluoro-1H-benzo[d]imidazol-5-yl)ethynyl)-7-(thiazol-2-yl)-1H-pyrazolo[4,3-c]pyridin-1-yl)pyrrolidin-1-yl)prop-2-en-1-one]	–	6.6 nM	3.2 nM	2.2 nM	2.9 nM	–	–	–	–	–	–
C=CC(=O)N1CC[C@H](n2nc(C#Cc3ccc4c(c3)ncn4C3CC3)c3c(N)ncc(C(=O)CC)c32)C1 [Example 39, (S)-1-(3-(4-amino-3-((1-cyclopropyl-1H-benzo[d]imidazol-5-yl)ethynyl)-7-propionyl-1H-pyrazolo[4,3-c]pyridin-1-yl)pyrrolidin-1-yl)prop-2-en-1-one]	–	6.1 nM	1.7 nM	0.6 nM	2.2 nM	4190 ng·h/mL	4240 ng·h/mL	1 h	2.63 h	1250 ng/mL	2 h
C=CC(=O)N1CC[C@H](n2nc(C#Cc3cc4ncn(C5CC5)c4cc3Cl)c3c(N)ncc(C(C)=O)c32)C1 [Example 44, (S)-1-(3-(7-acetyl-4-amino-3-((6-chloro-1-cyclopropyl-1H-benzo[d]imidazol-5-yl)ethynyl)-1H-pyrazolo[4,3-c]pyridin-1-yl)pyrrolidin-1-yl)prop-2-en-1-one]	–	4.4 nM	2.2 nM	0.4 nM	0.8 nM	–	–	–	–	–	–
C=CC(=O)N1CC[C@H](n2nc(C#Cc3cc4nc(C)n(C5CC5)c4cc3Cl)c3c(N)ncc(C(C)=O)c32)C1 [Example 54, (S)-1-(3-(7-acetyl-4-amino-3-((6-chloro-1-cyclopropyl-2-methyl-1H-benzo[d]imidazol-5-yl)ethynyl)-1H-pyrazolo[4,3-c]pyridin-1-yl)pyrrolidin-1-yl)prop-2-en-1-one]	–	5.5 nM	3.4 nM	0.9 nM	2.2 nM	–	–	–	–	–	–
C=CC(=O)N1CC[C@H](n2nc(C#Cc3cc4nc(C)n(C5CC5)c4cc3F)c3c(N)ncc(C(C)=O)c32)C1 [Example 55, (S)-1-(3-(7-acetyl-4-amino-3-((1-cyclopropyl-6-fluoro-2-methyl-1H-benzo[d]imidazol-5-yl)ethynyl)-1H-pyrazolo[4,3-c]pyridin-1-yl)pyrrolidin-1-yl)prop-2-en-1-one]	–	4.4 nM	2.8 nM	1 nM	2.2 nM	–	–	–	–	–	–
C=CC(=O)N1CC[C@H](n2nc(C#Cc3ccc4ccnn4c3)c3c(N)ncc(C(=O)C4CC4)c32)C1 [Example 73, (S)-1-(3-(4-amino-7-(cyclopropanecarbonyl)-3-(pyrazolo[1,5-a]pyridine-6-ethynylene)-1H-pyrazolo[4,3-c]pyridin-1-yl)pyrrolidine-1-methyl)prop-2-en-1-one]	–	2.3 nM	0.7 nM	0.9 nM	–	–	–	–	–	–	–

Other lines, results leading:

IC50 [1]	IC50 [2]	IC50 [3]	IC50 [4]	IC50 [5]	AUC(0-t) ([6]; male, Sprague-Dawley (SD), rat, po, read-out: Area under the curve AUC0-t)	AUC(0-inf) ([6]; male, Sprague-Dawley (SD), rat, po, read-out: Area under the curve AUC0-∞)	half-life ([6]; male, Sprague-Dawley (SD), rat, po, read-out: Half-life t1/2 (converted))	MRT ([6]; male, Sprague-Dawley (SD), rat, po, read-out: Mean residence time MRT)	Cmax ([6]; male, Sprague-Dawley (SD), rat, po, read-out: Plasma concentration Cmax)	Time to peak tmax ([6]; p.o.)	Compound
1.82 nM	–	–	–	–	–	–	–	–	–	–	C=CC(=O)N1CC[C@H](n2nc(C#Cc3cc4ncn(C)c4cc3F)c3c(N)ncc(C)c32)C1 [Example 18, (S)-1-(3-(4-amino-3-((6-fluoro-1-methyl-1H-benzo[d]imidazol-5-yl)ethynyl)-7-methyl-1H-pyrazolo[4,3-c]pyridin-1-yl)pyrrolidin-1-yl)prop-2-en-1-one]
–	3.5 nM	1.2 nM	0.8 nM	1.4 nM	–	–	–	–	–	–	C=CC(=O)N1CC[C@H](n2nc(C#Cc3c(F)cc4c(ncn4C)c3F)c3c(N)ncc(C(C)=O)c32)C1 [Example 31, (S)-1-(3-(7-acetyl-4-amino-3-((4,6-difluoro-1-methyl-1H-benzo[d]imidazol-5-yl)ethynyl)-1H-pyrazolo[4,3-c]pyridin-1-yl)pyrrolidin-1-yl)prop-2-en-1-one]
–	5.2 nM	3.5 nM	1.1 nM	0.2 nM	–	–	–	–	–	–	C=CC(=O)N1CC[C@H](n2nc(C#Cc3cc4ncn(C5CC5)c4cc3Cl)c3c(N)ncc(C(=O)C4CC4)c32)C1 [Example 46, (S)-1-(3-(4-amino-3-((6-chloro-1-cyclopropyl-1H-benzo[d]imidazol-5-yl)ethynyl)-7-(cyclopropanecarbonyl)-1H-pyrazolo[4,3-c]pyridin-1-yl)pyrrolidin-1-yl)prop-2-en-1-one]
–	5.6 nM	1.3 nM	0.5 nM	2.5 nM	–	–	–	–	–	–	C=CC(=O)N1CC[C@H](n2nc(C#Cc3ccc4c(c3)ncn4CC)c3c(N)ncc(C(=O)CC)c32)C1 [Example 57, (S)-1-(3-(4-amino-3-((1-ethyl-1H-benzo[d]imidazol-5-yl)ethynyl)-7-propionyl-1H-pyrazolo[4,3-c]pyridin-1-yl)pyrrolidin-1-yl)prop-2-en-1-one]
–	6.8 nM	2.9 nM	0.8 nM	2.8 nM	–	–	–	–	–	–	C=CC(=O)N1CC[C@H](n2nc(C#Cc3ccc4c(c3)ncn4C)c3c(N)ncc(C(=O)C(C)C)c32)C1 [Example 66]
